# According to ChEMBL document CHEMBL5537161, “Structure-Guided Design, Synthesis, and Antivirulence Assessment of Covalent Staphylococcus aureus Sortase A Inhibitors” (J Med Chem, 2024):
# The source made the active and inactive calls. No cut-off for these calls is given here.
# Columns and labels:
# [1] = molecular target: T1, Sortase A (Staphylococcus aureus, UniProt Q9S446, N24DEL); test: Inhibition of Staphylococcus aureus sortase A N24 deletion mutant using Abz-LPATG-Dnp as substrate preincubated for 20 mins followed by substrate addition by FRET assay
# [2] = molecular target: T1, Sortase A; test: Inhibition of Staphylococcus aureus Sortase A N24 deletion mutant transpeptidation using IsdA64-323 as substrate preincubated for 20 mins followed by substrate addition and measured after 1.5 hrs by SDS-PAGE analysis
# [3] = tested on: Staphylococcus aureus; test: Bactericidal activity against Staphylococcus aureus Newman assessed as reduction in bacterial growth incubated for 16 to 18 hrs; assay type: functional; conditions: time 16-18 hrs
# [4] = tested on: Staphylococcus aureus; test: Antibacterial activity against Staphylococcus aureus USA300 infected in Galleria mellonella assessed as increase in larvae survival at 30 mg/kg measured every 24 hrs for 5 days; assay type: functional; conditions: time 5 day
# [5] = tested on: Sortase A (Staphylococcus aureus), Q9S446 [UNDEFINED MUTATION]; test: Inhibition of Staphylococcus aureus Sortase A N24 deletion mutant transpeptidation assessed as thermal stabilization by measuring change in melting temperature at 80 uM incubated for 15 mins by Nano-DSF assay
# [6] = molecular target: Cathepsin B (Homo sapiens, UniProt P07858); test: Inhibition of cathepsin B (unknown origin) at 2 uM using Cbz-Phe-Arg-AMC as substrate preincubated for 5 mins followed by substrate addition by fluorescence based assay
# [7] = tested on: Sortase A (Staphylococcus aureus), Q9S446 [UNDEFINED MUTATION]; test: Irreversible inhibition of Staphylococcus aureus sortase A N24 deletion mutant preincubated with compound for 1 to 60 mins followed by substrate addition by FRET based assay; conditions: time 1-60 min, TDE = time-dependent effect
# [8] = tested on: Staphylococcus aureus; test: Antivirulence activity against Staphylococcus aureus Newman assessed as reduction in abundance of Sbi at 6.25 to 100 uM by Western blotting analysis; assay type: functional, organism-based; conditions: dose 6.25-100 µM
# [9] = Toxicity in Galleria mellonella assessed as change in color at 60 mg/kg measured after 120 hrs; assay type: organism-based; conditions: in vivo
# [10] = tested on: Staphylococcus aureus; test: Inhibition of Staphylococcus aureus USA300 biofilm formation incubated for 14 hrs by Crystal violet staining based assay; assay type: functional, organism-based; conditions: dose 12.5-100 µM
# [11] = tested on: Streptococcus pyogenes; test: Irreversible inhibition of Streptococcus pyogenes Sortase A N81 deletion mutant preincubated with compound for 1 to 60 mins followed by substrate addition by FRET based assay; conditions: time 1-60 min, TDE = time-dependent effect
# [12] = tested on: Streptococcus pyogenes; test: Inhibition of Streptococcus pyogenes Sortase A N81 deletion mutant transpeptidation assessed as thermal stabilization by measuring change in melting temperature at 80 uM incubated for 15 mins by Nano-DSF assay
# [13] = tested on: Staphylococcus aureus; test: Antibacterial activity against Staphylococcus aureus Newman assessed as reduction in bacterial growth at 100 uM incubated for 14 hrs by microplate reader assay; assay type: functional, organism-based
# [14] = Toxicity in Galleria mellonella larvae assessed as change in appearance at 60 mg/kg measured after 120 hrs; assay type: organism-based; conditions: in vivo
# [15] = tested on: Staphylococcus aureus; test: Antibacterial activity against Staphylococcus aureus Newman infected in Galleria mellonella assessed as reduction in melanization at 200 uM pretreated with compound followed by larvae infection measured after 24 hrs; assay type: functional, organism-based
# [16] = Toxicity in Galleria mellonella larvae assessed as effect on survival at 60 mg/kg measured after 120 hrs; assay type: organism-based; conditions: in vivo
# [17] = tested on: Staphylococcus aureus; test: Antivirulence activity against Staphylococcus aureus Newman assessed as reduction in abundance of anchored SpA in bacterial envelope by Western blotting analysis; assay type: functional, organism-based; conditions: dose 6.25-100 µM
# [18] = tested on: Staphylococcus aureus; test: Antibacterial activity against Staphylococcus aureus USA300 infected in Galleria mellonella assessed as reduction in melanization at 200 uM pretreated with compound followed by larvae infection measured after 24 hrs; assay type: functional, organism-based
# [19] = tested on: Staphylococcus aureus; test: Antibacterial activity against Staphylococcus aureus Newman infected in Galleria mellonella assessed as increase in larvae survival at 30 mg/kg measured every 24 hrs for 5 days; assay type: functional; conditions: time 5 day
# [20] = molecular target: Procathepsin L (Homo sapiens, UniProt P07711); test: Inhibition of cathepsin L (unknown origin) at 2 uM using Cbz-Phe-Arg-AMC as substrate preincubated for 5 mins followed by substrate addition by fluorescence based assay
# Sequence of Procathepsin L (P07711 114-333 limits assumed): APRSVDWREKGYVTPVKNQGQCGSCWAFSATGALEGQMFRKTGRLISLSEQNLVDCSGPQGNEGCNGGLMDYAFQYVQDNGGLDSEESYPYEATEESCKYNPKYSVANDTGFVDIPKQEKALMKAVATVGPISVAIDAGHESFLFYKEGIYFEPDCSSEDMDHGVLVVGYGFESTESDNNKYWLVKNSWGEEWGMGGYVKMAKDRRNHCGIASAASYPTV
# [21] = tested on: Staphylococcus aureus; test: Inhibition of Staphylococcus aureus Newman biofilm formation incubated for 14 hrs by Crystal violet staining based assay; assay type: functional, organism-based; conditions: dose 12.5-100 µM
# [22] = Inhibition of Streptococcus pyogenes Sortase A N81 deletion mutant transpeptidation using IsdA64-323 as substrate preincubated for 20 mins followed by substrate addition and measured after 1.5 hrs by SDS-PAGE analysis
# [23] = tested on: Staphylococcus aureus; test: Antibacterial activity against Staphylococcus aureus USA300 assessed as reduction in bacterial growth at 100 uM incubated for 14 hrs by microplate reader assay; assay type: functional, organism-based
smiles,measurement,setting,value
CCCOc1ccc(/C=C/C=C2C(=O)NC(=O)NC2=O)cc1,IC50,[1],0.7 µM
same,IC50,[2],8.1 µM
same,MIC,[3],> 128 µg/mL
NC(=O)COc1ccc(/C=C/C=C2C(=O)NC(=O)NC2=O)cc1,IC50,[1],0.9 µM
same,MIC,[3],> 128 µg/mL
O=C(CNC(=O)OCc1ccccc1)NCC(=O)Oc1ccc(/C=C/C=C2C(=O)NC(=O)NC2=O)cc1,IC50,[1],1.7 µM
same,MIC,[3],32 µg/mL
CC(C)CCC(=O)Oc1ccc(/C=C/C=C2C(=O)NC(=O)NC2=O)cc1,IC50,[1],1.5 µM
same,MIC,[3],128 µg/mL
O=C1NC(=O)C(=C/C=C/c2ccccc2)C(=O)N1,IC50,[1],1.1 µM
same,IC50,[2],8.2 µM
same,MIC,[3],> 128 µg/mL
CC(C)c1ccc(/C=C/C=C2C(=O)NC(=O)NC2=O)cc1,IC50,[1],1.8 µM
same,MIC,[3],32 µg/mL
O=C1NC(=O)C(=C/C=C/c2ccc(F)cc2)C(=O)N1,IC50,[1],1.3 µM
same,IC50,[2],7.4 µM
same,MIC,[3],> 128 µg/mL
COC(=O)c1ccc(COc2ccc(/C=C/C=C3C(=O)NC(=O)NC3=O)cc2)cc1,IC50,[1],> 50 µM
same,MIC,[3],> 128 µg/mL
O=C1NC(=O)C(=C/C=C/c2ccco2)C(=O)N1,IC50,[1],1.4 µM
same,MIC,[3],> 128 µg/mL
O=C1NC(=O)C(=CNc2ccc(Br)cc2)C(=O)N1,IC50,[1],> 50 µM
same,MIC,[3],> 128 µg/mL
CC(=O)Oc1ccc(COc2ccc(/C=C/C=C3C(=O)NC(=O)NC3=O)cc2)cc1,IC50,[1],0.8 µM
same,IC50,[2],16.1 µM
same,MIC,[3],> 128 µg/mL
COc1ccc(/C=C/C=C2C(=O)NC(=O)NC2=O)cn1,IC50,[1],2.3 µM
same,MIC,[3],> 128 µg/mL
O=C1NC(=O)C(=CNCc2ccc(Br)cc2)C(=O)N1,IC50,[1],> 50 µM
same,MIC,[3],> 128 µg/mL
O=C1NC(=O)C(=C/C=C/c2cc(Cl)cc(Cl)c2)C(=O)N1,IC50,[1],2 µM
same,MIC,[3],64 µg/mL
O=C1NC(=O)C(=C/C=C/c2cccc(Cl)c2)C(=O)N1,IC50,[1],1 µM
same,MIC,[3],64 µg/mL
O=C1NC(=O)C(=C/C=C/c2ccccc2Cl)C(=O)N1,IC50,[1],2.1 µM
same,MIC,[3],128 µg/mL
Cc1ccc(/C=C/C=C2C(=O)NC(=O)NC2=O)cc1,IC50,[1],1 µM
same,MIC,[3],128 µg/mL
COC(=O)COc1ccc(/C=C/C=C2C(=O)NC(=O)NC2=O)cc1,IC50,[1],1 µM
same,MIC,[3],> 128 µg/mL
N#Cc1ccc(COc2ccc(/C=C/C=C3C(=O)NC(=O)NC3=O)cc2)cc1,IC50,[1],0.7 µM
same,MIC,[3],> 128 µg/mL
O=C1NC(=O)C(=C/C=C/c2ccc(OCc3ccc(C(F)(F)F)cc3)cc2)C(=O)N1,IC50,[1],6.5 µM
same,MIC,[3],> 128 µg/mL
COc1ccc(C=C2C(=O)NC(=O)NC2=O)cc1,IC50,[1],> 50 µM
same,MIC,[3],> 128 µg/mL
CC(=O)Oc1ccc(/C=C/C=C2C(=O)NC(=O)NC2=O)cc1,IC50,[1],1.8 µM
same,MIC,[3],> 128 µg/mL
O=C1NC(=O)C(=C/C=C/c2ccc(OCC(=O)c3ccc[nH]3)cc2)C(=O)N1,IC50,[1],0.5 µM
same,IC50,[2],15.3 µM
same,MIC,[3],> 128 µg/mL
CSCC[C@H](NC(=O)OCc1ccccc1)C(=O)Oc1ccc(/C=C/C=C2C(=O)NC(=O)NC2=O)cc1,IC50,[1],6.9 µM
same,MIC,[3],128 µg/mL
COc1ccc(/C=C/C=C2C(=O)NC(=O)NC2=O)cc1,IC50,[1],1 µM
same,Activity,[4],40%
same,ΔTm,[5],4.5 °C
same,inhibition,[6],Active
same,IC50,[2],7.4 µM
same,inhibition,[7],Tde
same,MIC,[3],> 128 µg/mL
same,Activity,[8],Active
same,Activity,[9],Non-Toxic
same,inhibition,[10],Dose-Dependent Effect
same,inhibition,[11],Tde
same,ΔTm,[12],9.3 °C
same,Activity,[13],inactive
same,Activity,[14],Non-Toxic
same,Activity,[15],Active
same,Activity,[16],Non-Toxic
same,Activity,[17],Active
same,Activity,[18],Active
same,Activity,[19],<40%
same,inhibition,[20],Active
same,inhibition,[21],Dose-Dependent Effect
same,IC50,[22],3.4 µM
same,Activity,[23],inactive
O=C1NC(=O)C(=C/C=C/c2ccc(OCc3ccc([N+](=O)[O-])cc3)cc2)C(=O)N1,IC50,[1],1.3 µM
same,MIC,[3],> 128 µg/mL
O=C1NC(=O)C(=C/C=C/c2ccc(OC(=O)[C@H](CO)NC(=O)OCc3ccccc3)cc2)C(=O)N1,IC50,[1],2.5 µM
same,MIC,[3],> 128 µg/mL
